# Reference: ChEMBL document CHEMBL2069259, “Preclinical strategy to reduce clinical hepatotoxicity using in vitro bioactivation data for >200 compounds” (Chem Res Toxicol, 2012)
# System: Liver microsomes
# Assay: Metabolic stability in human liver microsomes assessed as GSH adduct formation at 100 uM after 90 mins by HPLC-MS analysis
# Details: 1.5 h
row,Molecule,Stability
1,CCN(CC)Cc1cc(Nc2ccnc3cc(Cl)ccc23)ccc1O.Cl,Unstable
2,Oc1ncnc2[nH]ncc12 [ALLOPURINOL],Stable
3,CCCCC[C@H](O)/C=C/[C@H]1[C@H](O)CC(=O)[C@@H]1CCCCCCC(=O)O [ALPROSTADIL],Stable
4,CC[C@H]1OC(=O)[C@H](C)[C@@H](O[C@H]2C[C@@](C)(OC)[C@@H](O)[C@H](C)O2)[C@H](C)[C@@H](O[C@@H]2O[C@H](C)C[C@H](N(C)C)[C@H]2O)[C@](C)(O)C[C@@H](C)CN(C)[C@H](C)[C@@H](O)[C@]1(C)O [AZITHROMYCIN],Stable
5,C[C@H]1C[C@H]2[C@@H]3CCC4=CC(=O)C=C[C@]4(C)[C@@]3(Cl)[C@@H](O)C[C@]2(C)[C@@]1(O)C(=O)CO [BECLOMETHASONE],Stable
6,CCCC1O[C@@H]2C[C@H]3[C@@H]4CCC5=CC(=O)C=C[C@]5(C)[C@H]4[C@@H](O)C[C@]3(C)[C@]2(C(=O)CO)O1 (some centres not stated) [BUDESONIDE],Stable
7,Cn1c(=O)c2c(ncn2C)n(C)c1=O [CAFFEINE],Stable
8,CCN1CCN(C(=O)N[C@@H](C(=O)N[C@@H]2C(=O)N3C(C(=O)O)=C(CSc4nnnn4C)CS[C@H]23)c2ccc(O)cc2)C(=O)C1=O [CEFOPERAZONE],Stable
9,CC(C)(O/N=C(\C(=O)N[C@@H]1C(=O)N2C(C(=O)[O-])=C(C[n+]3ccccc3)CS[C@H]12)c1csc(N)n1)C(=O)O [CEFTAZIDIME],Stable
10,CCN(CC)CCCC(C)Nc1ccnc2cc(Cl)ccc12 (configuration not stated) [CHLOROQUINE],Stable
11,CN(C)CCCN1c2ccccc2Sc2ccc(Cl)cc21 [CHLORPROMAZINE],Stable
12,CCCNC(=O)NS(=O)(=O)c1ccc(Cl)cc1 [CHLORPROPAMIDE],Stable
13,COc1cc(N)c(Cl)cc1C(=O)NC1CCN(CCCOc2ccc(F)cc2)CC1OC (configuration not stated) [CISAPRIDE],Stable
14,CCOC(=O)C(C)(C)Oc1ccc(Cl)cc1 [CLOFIBRATE],Stable
15,O=C(O)c1cc(=O)c2c(OCC(O)COc3cccc4oc(C(=O)O)cc(=O)c34)cccc2o1 [CROMOLYN],Stable
16,Nc1ccn([C@@H]2O[C@H](CO)[C@@H](O)[C@@H]2O)c(=O)n1 [CYTARABINE],Stable
17,O=C1CN(/N=C/c2ccc(-c3ccc([N+](=O)[O-])cc3)o2)C(O)=N1 [DANTROLENE],Stable
18,C[C@@H]1C[C@H]2[C@@H]3CCC4=CC(=O)C=C[C@]4(C)[C@@]3(F)[C@@H](O)C[C@]2(C)[C@@]1(O)C(=O)CO [DEXAMETHASONE],Stable
19,O=c1[nH]cnc2c1ncn2[C@H]1CC[C@@H](CO)O1 [DIDANOSINE],Stable
20,C[C@H]1O[C@@H](O[C@H]2[C@@H](O)C[C@H](O[C@H]3[C@@H](O)C[C@H](O[C@H]4CC[C@@]5(C)[C@H](CC[C@@H]6[C@@H]5C[C@@H](O)[C@]5(C)[C@@H](C7=CC(=O)OC7)CC[C@]65O)C4)O[C@@H]3C)O[C@@H]2C)C[C@H](O)[C@@H]1O [DIGOXIN],Stable
21,COc1ccc([C@@H]2Sc3ccccc3N(CCN(C)C)C(=O)[C@@H]2OC(C)=O)cc1 [DILTIAZEM],Stable
22,CC[C@H]1OC(=O)[C@H](C)[C@@H](O[C@H]2C[C@@](C)(OC)[C@@H](O)[C@H](C)O2)[C@H](C)[C@@H](O[C@@H]2O[C@H](C)C[C@H](N(C)C)[C@H]2O)[C@](C)(O)C[C@@H](C)C(=O)[C@H](C)[C@@H](O)[C@]1(C)O [ERYTHROMYCIN],Stable
23,CC(O)(P(=O)(O)O)P(=O)(O)O [ETIDRONIC ACID],Stable
24,NC(=O)OCC(COC(N)=O)c1ccccc1 [FELBAMATE],Stable

row,Molecule,Stability
1,CC(C)(C)NC(=O)[C@H]1CC[C@H]2[C@@H]3CC[C@H]4NC(=O)C=C[C@]4(C)[C@H]3CC[C@]12C [FINASTERIDE],Stable
2,O=c1[nH]c(=O)n([C@H]2C[C@H](O)[C@@H](CO)O2)cc1F [FLOXURIDINE],Stable
3,OC(Cn1cncn1)(Cn1cncn1)c1ccc(F)cc1F [FLUCONAZOLE],Stable
4,COc1ccccc1OCC(O)CO (configuration not stated) [GUAIFENESIN],Stable
5,COc1ccc2c3c1O[C@H]1C(=O)CC[C@H]4[C@@H](C2)N(C)CC[C@]314 [HYDROCODONE],Stable
6,CN1CC[C@]23c4c5ccc(O)c4O[C@H]2C(=O)CC[C@H]3[C@H]1C5 [HYDROMORPHONE],Stable
7,OCCOCCN1CCN(C(c2ccccc2)c2ccc(Cl)cc2)CC1 (configuration not stated) [HYDROXYZINE],Stable
8,CC(C)Cc1ccc(C(C)C(=O)O)cc1 (configuration not stated) [IBUPROFEN],Stable
9,COc1ccc2c(c1)c(CC(=O)O)c(C)n2C(=O)c1ccc(Cl)cc1 [INDOMETHACIN],Stable
10,CC(CCc1ccccc1)NCC(O)c1ccc(O)c(C(N)=O)c1 (configuration not stated) [LABETALOL],Stable
11,Nc1nnc(-c2cccc(Cl)c2Cl)c(N)n1 [LAMOTRIGINE],Stable
12,CC(C)C[C@H](N)C(=O)O [LEUCINE],Stable
13,CCNC(=O)[C@@H]1CCCN1C(=O)[C@H](CCCNC(=N)N)NC(=O)[C@H](CC(C)C)NC(=O)[C@@H](CC(C)C)NC(=O)[C@H](Cc1ccc(O)cc1)NC(=O)[C@H](CO)NC(=O)[C@H](Cc1c[nH]c2ccccc12)NC(=O)[C@H](Cc1c[nH]cn1)NC(=O)[C@@H]1CCC(=O)N1 [LEUPROLIDE],Stable
14,CNCCCC12CCC(c3ccccc31)c1ccccc12 [MAPROTILINE],Stable
15,CCOC(=O)C1(c2ccccc2)CCN(C)CC1 [MEPERIDINE],Stable
16,C[C@H](N)[C@H](O)c1cccc(O)c1 [METARAMINOL],Stable
17,CN[C@@H](C)Cc1ccccc1 [METHAMPHETAMINE],Stable
18,CN(Cc1cnc2nc(N)nc(N)c2n1)c1ccc(C(=O)N[C@@H](CCC(=O)O)C(=O)O)cc1 [METHOTREXATE],Stable
19,C[C@](N)(Cc1ccc(O)cc1)C(=O)O [METYROSINE],Stable
20,Nc1cc(N2CCCCC2)nc(N)[n+]1[O-] [MINOXIDIL],Unstable
21,NC(=O)C[S+]([O-])C(c1ccccc1)c1ccccc1 (configuration not stated) [MODAFINIL],Stable
22,CCc1nn(CCCN2CCN(c3cccc(Cl)c3)CC2)c(=O)n1CCOc1ccccc1 [NEFAZODONE],Stable
23,CN(C)C(=O)Oc1cccc([N+](C)(C)C)c1.[Br-] [NEOSTIGMINE BROMIDE],Stable
24,CC1(C)NC(=O)N(c2ccc([N+](=O)[O-])c(C(F)(F)F)c2)C1=O [NILUTAMIDE],Stable

row,Molecule,Stability
1,CC1COc2c(N3CCN(C)CC3)c(F)cc3c(=O)c(C(=O)O)cn1c23 (configuration not stated) [OFLOXACIN],Stable
2,Cc1cc2c(s1)Nc1ccccc1N=C2N1CCN(C)CC1 [OLANZAPINE],Stable
3,Cc1ccccc1C(OCCN(C)C)c1ccccc1 (configuration not stated) [ORPHENADRINE],Stable
4,CN1CC[C@]23c4c5ccc(O)c4O[C@H]2C(=O)CC[C@@]3(O)[C@H]1C5 [OXYMORPHONE],Stable
5,NCCC(O)(P(=O)(O)O)P(=O)(O)O [PAMIDRONIC ACID],Stable
6,CCC1(c2ccccc2)C(=O)NC(=O)NC1=O [PHENOBARBITAL],Stable
7,CC(C)(N)Cc1ccccc1 [PHENTERMINE],Stable
8,O=C1NC(=O)C(c2ccccc2)(c2ccccc2)N1 [PHENYTOIN],Stable
9,CO[C@H](C(=O)[C@@H](O)[C@@H](C)O)[C@@H]1Cc2cc3cc(O[C@H]4C[C@@H](O[C@H]5C[C@@H](O)[C@H](O)[C@@H](C)O5)[C@H](O)[C@@H](C)O4)c(C)c(O)c3c(O)c2C(=O)[C@H]1O[C@H]1C[C@@H](O[C@H]2C[C@@H](O[C@H]3C[C@](C)(O)[C@H](O)[C@@H](C)O3)[C@@H](O)[C@@H](C)O2)[C@H](O)[C@@H](C)O1 [PLICAMYCIN],Stable
10,CC(=O)[C@H]1CC[C@H]2[C@@H]3CCC4=CC(=O)CC[C@]4(C)[C@H]3CC[C@]12C [PROGESTERONE],Stable
11,NC(=O)c1cnccn1 [PYRAZINAMIDE],Stable
12,CCN1CCC[C@H]1CNC(=O)c1c(OC)ccc(Br)c1OC [REMOXIPRIDE],Stable
13,O=P(O)(O)C(O)(Cc1cccnc1)P(=O)(O)O [RISEDRONIC ACID],Stable
14,CC(C)NCC(O)c1ccc(NS(C)(=O)=O)cc1 (configuration not stated) [SOTALOL],Stable
15,CCN1CCCC1CNC(=O)c1cc(S(N)(=O)=O)ccc1OC (configuration not stated) [SULPIRIDE],Stable
16,CC/C(=C(\c1ccccc1)c1ccc(OCCN(C)C)cc1)c1ccccc1 [TAMOXIFEN],Stable
17,COc1cc2nc(N3CCN(C(=O)C4CCCO4)CC3)nc(N)c2cc1OC (configuration not stated) [TERAZOSIN],Stable
18,C[C@]12CC[C@H]3[C@@H](CCC4=CC(=O)CC[C@@]43C)[C@@H]1CC[C@@H]2O [TESTOSTERONE],Stable
19,Cc1cccc(Nc2ccncc2S(=O)(=O)NC(=O)NC(C)C)c1 [TORSEMIDE],Stable
20,C[C@]12C=CC(=O)C=C1CC[C@H]1[C@@H]3C[C@@H](O)[C@](O)(C(=O)CO)[C@@]3(C)C[C@H](O)[C@@]12F [TRIAMCINOLONE],Stable
21,Cc1cn([C@H]2C[C@H](N=[N+]=[N-])[C@@H](CO)O2)c(=O)[nH]c1=O [ZIDOVUDINE],Stable
22,GENTAMICIN,Stable

# System: Liver microsomes
# Assay: Metabolic stability in human liver microsomes assessed as high signal/noise ratio (S/N of >100) by measuring GSH adduct formation at 100 uM after 90 mins by HPLC-MS analysis
# Details: 1.5 h
row,Molecule,Stability
1,COc1cc(NS(C)(=O)=O)ccc1Nc1c2ccccc2nc2ccccc12 [AMSACRINE],Unstable
2,Cn1cnc([N+](=O)[O-])c1Sc1ncnc2nc[nH]c12 [AZATHIOPRINE],Unstable
3,C[C@H]1[C@H](NC(=O)/C(=N\OC(C)(C)C(=O)O)c2csc(N)n2)C(=O)N1S(=O)(=O)O [AZTREONAM],Unstable
4,CS(=O)(=O)OCCCCOS(C)(=O)=O [BUSULFAN],Unstable
5,NC(=O)N1c2ccccc2C=Cc2ccccc21 [CARBAMAZEPINE],Unstable
6,CO/N=C(\C(=O)N[C@@H]1C(=O)N2C(C(=O)O)=C(CSc3nc(=O)c(=O)[nH]n3C)CS[C@H]12)c1csc(N)n1 [CEFTRIAXONE],Unstable
7,CN/C(=N/CCSCc1nc[nH]c1C)NC#N [CIMETIDINE],Unstable
